Measured values: ChEMBL document CHEMBL1201862, “PubChem BioAssay data set” (2004)
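Tested at 5 concentrations; 48 h exposure; 96-well plates; endpoints linearly interpolated, else capped at highest concentration. At the GI50, growth is halved.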 Active and inactive are the calls of the source. Rule as the data show it: active = GI50 up to about 1.1 µM and inactive = higher.

How the values were obtained:
Experiment in all cases: NCI-60 cell line screen, 48 h
HOP-92 = system: HOP-92
KM12 = system: KM12
U-251 = system: U-251
COLO 205 = system: COLO 205
SN12C = system: SN12C
M19-MEL = system: M19-MEL
UO-31 = system: UO-31
ACHN = system: ACHN
SF-295 = system: SF-295
K562 = system: K562
OVCAR-3 = system: OVCAR-3
SNB-78 = system: SNB-78
RXF 393 = system: RXF 393
NCI-H226 = system: NCI-H226
SNB-19 = system: SNB-19
786-0 = system: 786-0
M14 = system: M14
HL-60 = system: HL-60
SK-MEL-5 = system: SK-MEL-5
UACC-257 = system: UACC-257
SF-268 = system: SF-268
A549 = system: A549
SK-MEL-2 = system: SK-MEL-2
SK-OV-3 = system: SK-OV-3
CAKI-1 = system: CAKI-1
OVCAR-5 = system: OVCAR-5
HT-29 = system: HT-29
DMS-114 = system: DMS-114
NCI-H522 = system: NCI-H522
DMS-273 = system: DMS-273
HCC 2998 = system: HCC 2998
SW-620 = system: SW-620
HOP-62 = system: HOP-62
RPMI-8226 = system: RPMI-8226
NCI-H23 = system: NCI-H23
HCT-116 = system: HCT-116
LOX IMVI = system: LOX IMVI
HCT-15 = system: HCT-15
HOP-18 = system: HOP-18
SK-MEL-28 = system: SK-MEL-28
LXFL 529 = system: LXFL 529
OVCAR-8 = system: OVCAR-8
NCI-H460 = system: NCI-H460
KM-20L2 = system: KM-20L2
DLD-1 = system: DLD-1
OVCAR-4 = system: OVCAR-4
UACC-62 = system: UACC-62
SR = system: SR
SNB-75 = system: SNB-75
XF498 = system: XF498
MOLT-4 = system: MOLT-4
Malme-3M = system: Malme-3M
SF-539 = system: SF-539
TK-10 = system: TK-10
CCRF-CEM = system: CCRF-CEM
EKVX = system: EKVX
IGROV-1 = system: IGROV-1
A498 = system: A498

In the case of `COc1cc(C=C2C(=O)NC(=O)NC2=O)cc(OC)c1OC`, the GI50 (HOP-92) is reported as > 100 µM (inactive), the GI50 (KM12) is reported as > 100 µM (inactive) and the GI50 (U-251) is reported as > 100 µM (inactive). The GI50 (COLO 205) was > 100 µM (inactive), the GI50 (SN12C) was > 100 µM (inactive) and the GI50 (M19-MEL) was > 100 µM (inactive). The GI50 (UO-31) was > 100 µM (inactive), the GI50 (ACHN) was > 100 µM (inactive) and the GI50 (SF-295) was > 100 µM (inactive). The GI50 (K562) was > 100 µM (inactive), the GI50 (OVCAR-3) was > 100 µM (inactive) and the GI50 (SNB-78) was > 100 µM (inactive). For the same molecule, the GI50 (RXF 393) was > 100 µM (inactive), the GI50 (NCI-H226) was > 100 µM (inactive) and the GI50 (SNB-19) was > 100 µM (inactive). The GI50 (786-0) was > 100 µM (inactive), the GI50 (M14) was > 100 µM (inactive) and the GI50 (HL-60) was > 100 µM (inactive). For the same molecule, the GI50 (SK-MEL-5) was > 100 µM (inactive), the GI50 (UACC-257) was > 100 µM (inactive) and the GI50 (SF-268) was > 100 µM (inactive). The GI50 (A549) was > 100 µM (inactive), the GI50 (SK-MEL-2) was > 100 µM (inactive) and the GI50 (SK-OV-3) was > 100 µM (inactive). For the same molecule, the GI50 (CAKI-1) was > 100 µM (inactive), the GI50 (OVCAR-5) was > 100 µM (inactive) and the GI50 (HT-29) was > 100 µM (inactive). For the same molecule, the GI50 (DMS-114) was > 100 µM (inactive), the GI50 (NCI-H522) was > 100 µM (inactive) and the GI50 (DMS-273) was > 100 µM (inactive). For the same molecule, the GI50 (HCC 2998) was > 100 µM (inactive), the GI50 (SW-620) was > 100 µM (inactive) and the GI50 (HOP-62) was > 100 µM (inactive). The GI50 (RPMI-8226) was > 100 µM (inactive), the GI50 (NCI-H23) was > 100 µM (inactive) and the GI50 (HCT-116) was > 100 µM (inactive). For the same molecule, the GI50 (LOX IMVI) was > 100 µM (inactive), the GI50 (HCT-15) was > 100 µM and the GI50 (HOP-18) was > 100 µM (inactive). For the same molecule, the GI50 (SK-MEL-28) was > 100 µM (inactive), the GI50 (LXFL 529) was > 100 µM (inactive) and the GI50 (OVCAR-8) was > 100 µM (inactive). The GI50 (NCI-H460) was > 100 µM (inactive), the GI50 (KM-20L2) was > 100 µM (inactive) and the GI50 (DLD-1) was > 100 µM (inactive). The GI50 (OVCAR-4) was > 100 µM (inactive), the GI50 (UACC-62) was > 100 µM (inactive) and the GI50 (SR) was > 100 µM (inactive). For the same molecule, the GI50 (SNB-75) was 80.2 µM (inactive), the GI50 (XF498) was > 100 µM (inactive) and the GI50 (MOLT-4) was > 100 µM (inactive). The GI50 (Malme-3M) was > 100 µM (inactive), the GI50 (SF-539) was > 100 µM (inactive) and the GI50 (TK-10) was > 100 µM (inactive). For the same molecule, the GI50 (CCRF-CEM) was > 100 µM (inactive) and the GI50 (EKVX) was > 100 µM (inactive).

In the case of `Cc1ccc(NC(=O)CC/C(CC(=O)C(C)(C)C)=N\NC(=O)C[n+]2ccccc2)cc1C`, the GI50 (HOP-92) is reported as > 100 µM (inactive), the GI50 (KM12) is reported as > 100 µM (inactive) and the GI50 (U-251) is reported as 87.9 µM (inactive). For the same molecule, the GI50 (COLO 205) was > 100 µM (inactive), the GI50 (SN12C) was > 100 µM (inactive) and the GI50 (M19-MEL) was > 100 µM (inactive). The GI50 (UO-31) was > 100 µM (inactive), the GI50 (ACHN) was > 100 µM (inactive) and the GI50 (SF-295) was > 100 µM (inactive). For the same molecule, the GI50 (K562) was 46.9 µM (inactive), the GI50 (OVCAR-3) was > 100 µM (inactive) and the GI50 (SNB-78) was > 100 µM (inactive). The GI50 (RXF 393) was 68.1 µM (inactive), the GI50 (NCI-H226) was > 100 µM (inactive) and the GI50 (SNB-19) was > 100 µM (inactive). The GI50 (786-0) was > 100 µM (inactive), the GI50 (M14) was > 100 µM (inactive) and the GI50 (HL-60) was 32 µM (inactive). For the same molecule, the GI50 (SK-MEL-5) was > 100 µM (inactive), the GI50 (UACC-257) was > 100 µM (inactive) and the GI50 (SF-268) was > 100 µM (inactive). The GI50 (A549) was > 100 µM (inactive), the GI50 (SK-MEL-2) was > 100 µM (inactive) and the GI50 (SK-OV-3) was > 100 µM (inactive). For the same molecule, the GI50 (CAKI-1) was > 100 µM (inactive), the GI50 (OVCAR-5) was > 100 µM (inactive) and the GI50 (HT-29) was 91.2 µM (inactive). The GI50 (DMS-114) was 73.6 µM (inactive), the GI50 (NCI-H522) was > 100 µM (inactive) and the GI50 (IGROV-1) was > 100 µM (inactive). The GI50 (DMS-273) was > 100 µM (inactive), the GI50 (HCC 2998) was > 100 µM (inactive) and the GI50 (SW-620) was > 100 µM (inactive). For the same molecule, the GI50 (HOP-62) was > 100 µM (inactive), the GI50 (RPMI-8226) was 87.7 µM (inactive) and the GI50 (NCI-H23) was > 100 µM (inactive). The GI50 (HCT-116) was 74.5 µM (inactive), the GI50 (LOX IMVI) was 99.8 µM (inactive) and the GI50 (HCT-15) was 53 µM. The GI50 (HOP-18) was > 100 µM (inactive), the GI50 (SK-MEL-28) was > 100 µM (inactive) and the GI50 (LXFL 529) was > 100 µM (inactive). The GI50 (OVCAR-8) was > 100 µM (inactive), the GI50 (NCI-H460) was 51.9 µM (inactive) and the GI50 (KM-20L2) was > 100 µM (inactive). For the same molecule, the GI50 (OVCAR-4) was > 100 µM (inactive), the GI50 (UACC-62) was > 100 µM (inactive) and the GI50 (SR) was 78.5 µM (inactive). The GI50 (SNB-75) was > 100 µM (inactive), the GI50 (A498) was > 100 µM (inactive) and the GI50 (XF498) was 87.7 µM (inactive). For the same molecule, the GI50 (MOLT-4) was 51.2 µM (inactive), the GI50 (Malme-3M) was > 100 µM (inactive) and the GI50 (SF-539) was > 100 µM (inactive). The GI50 (TK-10) was > 100 µM (inactive), the GI50 (CCRF-CEM) was 45.3 µM (inactive) and the GI50 (EKVX) was > 100 µM (inactive).
